Biological target: T1, SIRT1 (histone deacetylase) (Homo sapiens, UniProt Q96EB6)
T1 construct: purchased BIOMOL Research Laboratories, Inc., Plymouth Meeting, Pa
T1 sequence (Q96EB6 1-747): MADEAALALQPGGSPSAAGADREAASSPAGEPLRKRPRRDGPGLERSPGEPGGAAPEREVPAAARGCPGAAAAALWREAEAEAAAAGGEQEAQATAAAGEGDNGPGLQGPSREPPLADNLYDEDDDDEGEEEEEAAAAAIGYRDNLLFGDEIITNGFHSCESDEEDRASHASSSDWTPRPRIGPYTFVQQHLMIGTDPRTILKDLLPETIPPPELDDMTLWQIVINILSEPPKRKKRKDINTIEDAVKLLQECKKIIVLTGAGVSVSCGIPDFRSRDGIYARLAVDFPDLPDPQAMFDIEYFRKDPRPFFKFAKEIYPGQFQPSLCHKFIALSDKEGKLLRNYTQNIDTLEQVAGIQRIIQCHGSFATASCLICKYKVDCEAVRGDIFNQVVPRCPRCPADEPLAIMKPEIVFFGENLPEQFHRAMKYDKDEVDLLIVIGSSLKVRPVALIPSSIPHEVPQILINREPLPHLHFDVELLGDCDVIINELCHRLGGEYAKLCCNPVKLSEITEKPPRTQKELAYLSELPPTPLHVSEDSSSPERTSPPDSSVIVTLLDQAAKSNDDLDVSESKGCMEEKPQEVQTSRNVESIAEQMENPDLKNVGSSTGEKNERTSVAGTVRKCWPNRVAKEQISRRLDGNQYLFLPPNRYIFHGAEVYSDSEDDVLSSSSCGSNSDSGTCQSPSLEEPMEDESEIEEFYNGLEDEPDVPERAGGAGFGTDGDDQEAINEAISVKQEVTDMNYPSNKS
Experiment: Cell-based fluorescence deacetylase assay, SIRT1 Fluorimetric Drug Discovery Kit (BIOMOL)
Description: A cell-based fluorescence deacetylase assay, SIRT1 Fluorimetric Drug Discovery Kit, obtained from BIOMOL Research Laboratories, Inc., Plymouth Meeting, Pa. was used to measure the effects of various polyphenols in apple extract on histone deacetylase activity.

Row | Compound | Histone deacetylase activity (concentration 500 micromolar) | Histone deacetylase activity (concentration 100 micromolar)
1 | O=C(CCc1ccc(O)cc1)c1c(O)cc(O)cc1O [Phloretin] | 1.94 × baseline | –
2 | Catechins | 1.26-1.53 × baseline | –
3 | O=c1c(O)c(-c2ccc(O)c(O)c2)oc2cc(O)cc(O)c12 [Quercetin] | 4.59 × baseline | –
4 | O=C(CCc1ccc(O)cc1)c1c(O)cc(O)cc1O[C@@H]1O[C@H](CO)[C@@H](O)[C@H](O)[C@H]1O [Phlorizin] | – | 1.36 × baseline

Reference: patent publication US20060189512A1, “Compositions containing botanical extracts rich in phlorizin and methods for using such compositions in blood glucose modification and to affect aging” (priority 2005, published 2006)
